# Experimental data published in publication PMC6661730, “Biochemical characterization of a novel exo-oligoxylanase from Paenibacillus barengoltzii suitable for monosaccharification from corncobs” (Biotechnology for Biofuels, 2019).
# Biological target: T1, PbRex8 (Paenibacillus barengoltzii, UniProt R9L536)
# T1 construct: gene C812_03928; full-length ORF, 382 residues (predicted 44 kDa), no signal peptide; N-terminal His6-tag from pET-28a(+) (NheI/XhoI), tag cleavage not mentioned; E. coli BL21(DE3); monomer; primers encode N-terminal MKEHQG and C-terminal RGEA
# Experiment: HPLC-RID xylose release, nonlinear regression
# Format: biochemical
# Conditions: competitive; X3 as substrate, 5 mM citrate pH 5.5, 55 °C
# T1 sequence (R9L536 entry or part of it): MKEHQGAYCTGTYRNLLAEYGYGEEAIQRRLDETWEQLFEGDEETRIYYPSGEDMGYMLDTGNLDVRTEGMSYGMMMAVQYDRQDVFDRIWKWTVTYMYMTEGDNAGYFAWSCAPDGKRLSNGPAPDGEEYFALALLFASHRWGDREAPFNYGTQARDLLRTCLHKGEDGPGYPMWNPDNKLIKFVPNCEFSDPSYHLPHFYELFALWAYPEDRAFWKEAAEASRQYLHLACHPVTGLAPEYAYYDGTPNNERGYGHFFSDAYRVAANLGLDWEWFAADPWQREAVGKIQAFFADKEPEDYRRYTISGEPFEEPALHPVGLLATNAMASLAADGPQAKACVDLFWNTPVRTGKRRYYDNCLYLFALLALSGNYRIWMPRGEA
structure (smiles),measurement,value
"OC1OC[C@@H](O)[C@H](O)[C@H]1O (stereo partly shown) [X, xylose]",Ki,12.9 ± 0.6 mM
